Read-outs that look alike come from different tables or passages of the source.
Assays:
Test in all cases: KinomeScan kinase panel, single concentration 10 µM
Format in all cases: binding
KinomeScan kinase panel [1] = molecular target: T1, KinomeScan kinase panel (Homo sapiens, UniProt O15264); settings: p38-delta, 10 µM; read-out: score (%)
T1 construct: purchased DiscoveRx (KinomeScan)
T1 sequence (O15264 1-365): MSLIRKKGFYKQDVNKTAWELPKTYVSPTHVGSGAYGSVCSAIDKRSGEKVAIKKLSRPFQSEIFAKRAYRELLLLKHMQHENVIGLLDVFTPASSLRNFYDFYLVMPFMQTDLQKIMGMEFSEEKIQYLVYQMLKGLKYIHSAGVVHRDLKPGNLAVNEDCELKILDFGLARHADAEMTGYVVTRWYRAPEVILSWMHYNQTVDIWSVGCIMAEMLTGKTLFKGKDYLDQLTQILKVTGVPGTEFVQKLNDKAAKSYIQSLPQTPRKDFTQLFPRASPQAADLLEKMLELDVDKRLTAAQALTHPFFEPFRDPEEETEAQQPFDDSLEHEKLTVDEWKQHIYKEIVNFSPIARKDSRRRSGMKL

KinomeScan kinase panel [2] = molecular target: T2, KinomeScan kinase panel (Homo sapiens, UniProt Q15418); settings: 10 µM, read-out: score (%)
T2 construct: purchased DiscoveRx (KinomeScan)

KinomeScan kinase panel [3] = molecular target: T3, KinomeScan kinase panel (Homo sapiens, UniProt P57078); settings: read-out: score (%)
T3 construct: purchased DiscoveRx (KinomeScan)
T3 sequence (P57078 1-832): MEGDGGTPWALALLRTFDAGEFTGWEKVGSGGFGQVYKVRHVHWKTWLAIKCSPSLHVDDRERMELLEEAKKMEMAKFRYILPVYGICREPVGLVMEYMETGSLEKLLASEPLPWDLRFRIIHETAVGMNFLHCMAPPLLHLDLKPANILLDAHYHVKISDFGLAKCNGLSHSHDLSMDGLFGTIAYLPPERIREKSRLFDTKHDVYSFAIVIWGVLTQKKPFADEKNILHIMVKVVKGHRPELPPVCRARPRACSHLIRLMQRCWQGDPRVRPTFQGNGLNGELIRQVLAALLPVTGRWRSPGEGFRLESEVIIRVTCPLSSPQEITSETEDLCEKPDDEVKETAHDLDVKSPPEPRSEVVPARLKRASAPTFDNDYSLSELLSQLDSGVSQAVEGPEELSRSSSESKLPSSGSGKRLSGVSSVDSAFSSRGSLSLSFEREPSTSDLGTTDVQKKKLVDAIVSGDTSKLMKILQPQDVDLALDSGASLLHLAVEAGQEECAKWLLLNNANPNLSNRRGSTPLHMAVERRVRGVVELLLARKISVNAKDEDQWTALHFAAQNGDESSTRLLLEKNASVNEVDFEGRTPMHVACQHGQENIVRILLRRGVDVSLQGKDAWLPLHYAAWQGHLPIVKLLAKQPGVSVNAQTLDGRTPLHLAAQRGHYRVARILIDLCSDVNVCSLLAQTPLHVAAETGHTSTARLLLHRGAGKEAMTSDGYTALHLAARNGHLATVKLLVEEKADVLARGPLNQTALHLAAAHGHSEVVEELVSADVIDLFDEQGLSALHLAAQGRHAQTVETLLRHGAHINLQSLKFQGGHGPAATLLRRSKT

KinomeScan kinase panel [4] = molecular target: T4, KinomeScan kinase panel (Homo sapiens, UniProt P08922); settings: read-out: score (%)
T4 construct: purchased DiscoveRx (KinomeScan)

KinomeScan kinase panel [5] = molecular target: T5, KinomeScan kinase panel (Homo sapiens, UniProt P36888); settings: FLT3, 10 µM; read-out: score (%)
T5 construct: purchased DiscoveRx (KinomeScan)
T5 sequence (P36888 27-993): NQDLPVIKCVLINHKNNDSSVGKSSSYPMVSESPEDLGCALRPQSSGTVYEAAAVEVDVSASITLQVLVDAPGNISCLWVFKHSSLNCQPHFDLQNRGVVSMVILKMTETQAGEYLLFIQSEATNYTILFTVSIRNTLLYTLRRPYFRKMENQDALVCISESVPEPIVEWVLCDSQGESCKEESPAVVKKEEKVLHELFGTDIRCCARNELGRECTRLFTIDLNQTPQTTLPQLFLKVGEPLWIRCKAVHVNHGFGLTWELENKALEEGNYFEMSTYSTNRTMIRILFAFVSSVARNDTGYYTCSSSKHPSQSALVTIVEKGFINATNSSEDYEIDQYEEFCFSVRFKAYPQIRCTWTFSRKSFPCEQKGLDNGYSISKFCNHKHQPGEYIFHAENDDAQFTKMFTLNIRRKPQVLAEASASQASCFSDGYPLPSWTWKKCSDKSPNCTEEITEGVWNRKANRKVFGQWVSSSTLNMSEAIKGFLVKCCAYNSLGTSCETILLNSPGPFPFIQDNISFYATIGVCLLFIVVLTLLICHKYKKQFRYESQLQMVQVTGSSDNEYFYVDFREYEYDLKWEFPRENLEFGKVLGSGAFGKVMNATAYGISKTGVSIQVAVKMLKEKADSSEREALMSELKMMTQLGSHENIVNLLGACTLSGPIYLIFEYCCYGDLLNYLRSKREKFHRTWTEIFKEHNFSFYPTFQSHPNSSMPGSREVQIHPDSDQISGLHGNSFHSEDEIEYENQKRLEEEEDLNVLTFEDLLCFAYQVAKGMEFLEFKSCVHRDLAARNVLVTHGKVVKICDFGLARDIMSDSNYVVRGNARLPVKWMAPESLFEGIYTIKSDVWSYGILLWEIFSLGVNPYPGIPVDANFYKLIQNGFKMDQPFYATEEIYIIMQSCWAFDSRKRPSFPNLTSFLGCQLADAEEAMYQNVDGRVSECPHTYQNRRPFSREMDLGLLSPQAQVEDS

KinomeScan kinase panel [6] = molecular target: T6, KinomeScan kinase panel (Homo sapiens, UniProt Q92772); settings: CDKL2, 10 µM; read-out: score (%)
T6 construct: purchased DiscoveRx (KinomeScan)
T6 sequence (Q92772 1-493): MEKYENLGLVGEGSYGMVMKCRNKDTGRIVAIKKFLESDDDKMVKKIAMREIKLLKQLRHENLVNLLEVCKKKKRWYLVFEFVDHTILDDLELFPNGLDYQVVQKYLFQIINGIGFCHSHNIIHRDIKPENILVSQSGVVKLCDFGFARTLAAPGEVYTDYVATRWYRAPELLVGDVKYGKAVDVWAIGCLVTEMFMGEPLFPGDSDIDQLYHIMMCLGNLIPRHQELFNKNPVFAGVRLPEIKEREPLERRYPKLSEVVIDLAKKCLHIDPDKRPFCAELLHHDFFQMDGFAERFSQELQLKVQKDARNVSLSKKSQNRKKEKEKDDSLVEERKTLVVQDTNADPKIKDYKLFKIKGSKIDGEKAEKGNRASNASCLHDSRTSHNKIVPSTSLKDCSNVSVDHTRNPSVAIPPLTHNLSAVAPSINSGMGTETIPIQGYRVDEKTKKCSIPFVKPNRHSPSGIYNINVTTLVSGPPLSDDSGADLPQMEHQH

KinomeScan kinase panel [7] = molecular target: T7, KinomeScan kinase panel (Homo sapiens, UniProt Q9Y6E0); settings: MST3, 10 µM
T7 construct: purchased DiscoveRx (KinomeScan)
T7 sequence (Q9Y6E0 whole entry): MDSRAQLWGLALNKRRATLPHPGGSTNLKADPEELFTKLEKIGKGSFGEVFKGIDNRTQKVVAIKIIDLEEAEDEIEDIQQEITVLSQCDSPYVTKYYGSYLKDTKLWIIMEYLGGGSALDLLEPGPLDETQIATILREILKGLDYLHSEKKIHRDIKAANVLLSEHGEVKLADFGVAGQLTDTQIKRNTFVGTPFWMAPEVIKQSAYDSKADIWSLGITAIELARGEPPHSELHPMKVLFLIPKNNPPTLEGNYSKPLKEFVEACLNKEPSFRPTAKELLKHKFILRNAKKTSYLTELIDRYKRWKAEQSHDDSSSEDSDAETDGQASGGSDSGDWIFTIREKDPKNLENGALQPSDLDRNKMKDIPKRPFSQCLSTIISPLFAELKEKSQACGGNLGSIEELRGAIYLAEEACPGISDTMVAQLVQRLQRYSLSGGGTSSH

T2 sequence (Q15418 whole entry): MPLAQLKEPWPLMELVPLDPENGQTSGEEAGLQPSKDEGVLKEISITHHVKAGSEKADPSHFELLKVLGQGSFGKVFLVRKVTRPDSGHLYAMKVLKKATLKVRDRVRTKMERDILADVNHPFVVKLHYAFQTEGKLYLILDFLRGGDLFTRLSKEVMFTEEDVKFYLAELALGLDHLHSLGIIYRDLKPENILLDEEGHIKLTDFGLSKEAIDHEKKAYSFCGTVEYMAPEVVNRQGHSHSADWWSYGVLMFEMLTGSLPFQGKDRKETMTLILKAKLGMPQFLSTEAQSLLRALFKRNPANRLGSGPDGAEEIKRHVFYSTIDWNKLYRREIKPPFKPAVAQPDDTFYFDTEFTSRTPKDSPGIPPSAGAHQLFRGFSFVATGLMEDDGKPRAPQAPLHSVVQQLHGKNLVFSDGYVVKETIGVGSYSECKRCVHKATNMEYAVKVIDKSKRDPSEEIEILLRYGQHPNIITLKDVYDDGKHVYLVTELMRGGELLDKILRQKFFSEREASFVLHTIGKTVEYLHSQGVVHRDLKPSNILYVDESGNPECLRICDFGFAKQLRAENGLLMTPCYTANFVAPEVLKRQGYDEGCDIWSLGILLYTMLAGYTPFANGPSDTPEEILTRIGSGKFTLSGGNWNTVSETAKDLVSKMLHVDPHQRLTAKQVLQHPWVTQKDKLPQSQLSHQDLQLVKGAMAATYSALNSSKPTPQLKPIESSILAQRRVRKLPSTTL
T4 sequence (P08922 28-2347): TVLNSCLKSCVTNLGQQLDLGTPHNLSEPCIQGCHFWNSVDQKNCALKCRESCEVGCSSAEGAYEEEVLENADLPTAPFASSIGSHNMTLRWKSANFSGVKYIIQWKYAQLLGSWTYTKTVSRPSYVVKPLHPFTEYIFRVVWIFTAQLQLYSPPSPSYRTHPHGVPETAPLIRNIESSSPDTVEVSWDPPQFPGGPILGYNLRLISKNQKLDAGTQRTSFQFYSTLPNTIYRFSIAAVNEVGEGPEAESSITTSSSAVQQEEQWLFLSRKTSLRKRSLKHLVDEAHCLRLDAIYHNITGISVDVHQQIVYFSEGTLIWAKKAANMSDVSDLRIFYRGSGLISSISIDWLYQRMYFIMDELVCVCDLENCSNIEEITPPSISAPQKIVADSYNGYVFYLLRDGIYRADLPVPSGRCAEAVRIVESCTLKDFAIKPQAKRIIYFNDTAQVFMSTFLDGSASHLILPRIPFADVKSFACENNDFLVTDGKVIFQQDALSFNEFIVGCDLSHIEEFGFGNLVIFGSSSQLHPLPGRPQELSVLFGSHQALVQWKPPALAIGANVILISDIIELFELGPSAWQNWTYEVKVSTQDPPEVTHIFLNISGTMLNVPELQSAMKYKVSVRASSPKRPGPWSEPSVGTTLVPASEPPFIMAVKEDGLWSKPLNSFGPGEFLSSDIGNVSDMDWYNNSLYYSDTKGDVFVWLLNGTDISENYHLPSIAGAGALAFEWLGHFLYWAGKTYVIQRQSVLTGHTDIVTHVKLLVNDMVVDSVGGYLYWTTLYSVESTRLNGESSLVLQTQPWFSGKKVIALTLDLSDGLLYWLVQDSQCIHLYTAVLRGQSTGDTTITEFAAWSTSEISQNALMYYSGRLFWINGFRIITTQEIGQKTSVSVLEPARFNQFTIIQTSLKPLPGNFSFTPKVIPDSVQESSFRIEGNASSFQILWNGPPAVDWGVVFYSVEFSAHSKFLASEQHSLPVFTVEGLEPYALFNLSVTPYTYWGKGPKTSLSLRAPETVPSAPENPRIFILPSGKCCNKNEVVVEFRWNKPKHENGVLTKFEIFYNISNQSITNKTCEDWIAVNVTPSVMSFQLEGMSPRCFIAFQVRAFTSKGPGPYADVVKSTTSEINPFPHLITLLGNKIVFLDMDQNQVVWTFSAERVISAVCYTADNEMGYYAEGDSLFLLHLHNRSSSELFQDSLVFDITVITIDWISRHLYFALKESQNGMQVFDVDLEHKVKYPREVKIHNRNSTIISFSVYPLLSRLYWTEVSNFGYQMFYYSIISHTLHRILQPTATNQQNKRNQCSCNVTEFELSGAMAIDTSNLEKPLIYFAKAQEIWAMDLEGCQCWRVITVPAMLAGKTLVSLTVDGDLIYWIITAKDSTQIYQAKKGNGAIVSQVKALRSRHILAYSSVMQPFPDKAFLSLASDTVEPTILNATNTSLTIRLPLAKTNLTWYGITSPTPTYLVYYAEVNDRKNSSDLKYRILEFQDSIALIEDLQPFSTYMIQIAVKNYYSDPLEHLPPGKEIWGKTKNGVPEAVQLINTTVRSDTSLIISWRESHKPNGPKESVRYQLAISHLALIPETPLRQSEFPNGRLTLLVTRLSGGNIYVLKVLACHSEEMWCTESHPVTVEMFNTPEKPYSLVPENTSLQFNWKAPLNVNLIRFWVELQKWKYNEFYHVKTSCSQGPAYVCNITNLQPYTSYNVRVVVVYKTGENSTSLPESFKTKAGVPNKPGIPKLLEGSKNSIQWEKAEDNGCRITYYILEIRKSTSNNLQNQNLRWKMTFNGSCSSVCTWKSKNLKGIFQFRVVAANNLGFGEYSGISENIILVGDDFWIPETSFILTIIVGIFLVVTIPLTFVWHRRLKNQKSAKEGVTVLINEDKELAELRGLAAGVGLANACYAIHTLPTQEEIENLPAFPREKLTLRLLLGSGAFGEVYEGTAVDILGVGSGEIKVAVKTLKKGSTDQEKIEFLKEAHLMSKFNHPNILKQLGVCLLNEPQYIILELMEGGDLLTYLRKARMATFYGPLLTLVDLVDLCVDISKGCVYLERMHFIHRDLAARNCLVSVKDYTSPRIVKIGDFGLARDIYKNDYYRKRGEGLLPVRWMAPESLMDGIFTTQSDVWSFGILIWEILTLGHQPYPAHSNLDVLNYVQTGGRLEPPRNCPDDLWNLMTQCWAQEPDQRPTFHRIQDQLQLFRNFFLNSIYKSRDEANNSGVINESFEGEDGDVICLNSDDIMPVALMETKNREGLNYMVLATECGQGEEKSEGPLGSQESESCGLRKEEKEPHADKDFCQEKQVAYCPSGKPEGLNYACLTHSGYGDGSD

SMILES	remaining binding at 10 µM (KinomeScan kinase panel [1]) [%]	remaining binding at 10 µM (KinomeScan kinase panel [2]; RPS6KA1(Kin.Dom.1-N-terminal)) [%]	remaining binding at 10 µM (KinomeScan kinase panel [2]; RPS6KA1(Kin.Dom.2-C-terminal)) [%]	remaining binding at 10 µM (KinomeScan kinase panel [3]; RIPK4, 10 µM) [%]	remaining binding at 10 µM (KinomeScan kinase panel [4]; ROS1, 10 µM) [%]	remaining binding at 10 µM (KinomeScan kinase panel [5]) [%]	remaining binding at 10 µM (KinomeScan kinase panel [6]) [%]	score (%) (KinomeScan kinase panel [7])	remaining binding at 10 µM (KinomeScan kinase panel [2]; RPS6KA1(Kin.Dom.1)) [%]	remaining binding at 10 µM (KinomeScan kinase panel [2]; RPS6KA1(Kin.Dom.2)) [%]	remaining binding at 10 µM (KinomeScan kinase panel [2]; kinase RSK1(Kin.Dom.1-N-terminal)) [%]	remaining binding at 10 µM (KinomeScan kinase panel [2]; kinase RSK1(Kin.Dom.2-C-terminal)) [%]	remaining binding at 10 µM (KinomeScan kinase panel [3]; kinase RIPK4, 10 µM) [%]	remaining binding at 10 µM (KinomeScan kinase panel [4]; kinase ROS1, 10 µM) [%]
CCN1CCN(Cc2ccc(NC(=O)c3ccc(C)c(NC(=O)c4cncc(-c5cccs5)c4)c3)cc2C(F)(F)F)CC1 [ALW-II-41-27]	29	> 30	> 30	> 30	> 30	0.65	9.1	nb (Hits values higher than 30% were considered negative (no binding: nb))						
CCN1CCN(Cc2ccc(NC(=O)c3ccc(C)c(/C=C/c4cnc5[nH]ccc5c4Cl)c3)cc2C(F)(F)F)CC1 [HG-6-63-01, (E)-3-(2-(4-chloro-1H-pyrrolo[2,3-b]pyridin-5-yl)vinyl)-N-(4-((4-ethylpiperazin-1-yl)methyl)-3-(trifluoromethyl)phenyl)-4-methylbenzamide]	> 30			> 30	> 30	0.1	0.5	nb (Hits values higher than 30% were considered negative (no binding: nb))	> 30	> 30				
CCN1CCN(Cc2ccc(NC(=O)c3ccc(C)c(C#Cc4cccnc4)c3)cc2C(F)(F)F)CC1 [XMD15-44]	2.5					0.25	1.4	2.8%			53	7.2	48	46
